Key:
[1] = Example 3: blood test of LDL, HDL and cholesterol levels, periodic treatment with fluvastatin, person; type: in vivo, human
Description: A person visits their physician and during the visit undergoes a blood test. The person is found to have an LDL level of 87 mg/dl, HDL level of 41 mg/dl and a cholesterol level of 266 mg/dl. […] To remind the person to take fluvastatin following the two month breaks, the physician inputs the days that the person is to take fluvastatin and arranges for the person to receive text messages through Skype that the person will receive on their cell phone and their personal computer. Two months after taking the first weeks dose of atorvastatin, the person receives a reminder by text to take the second weeks dose of atorvastatin two months later. This repeats every two months. The person returns to the physician for a follow on blood test six months later and they are found to have LDL level of 112 mg/dl, HDL level of 47 mg/dl and a cholesterol level of 188 mg/dl. At this point the physician changes the frequency of dosing to one week taking fluvastatin followed by a break of three months at a dose of 40 mg, with this schedule repeating thereafter. The physician inputs the new schedule so that the person receives text messages every three months to restart taking fluvastatin. A year later, the person returns to the physician for a blood test. […] The physician recommends that the person continue to take fluvastatin for a week followed by a three month break and repeating this schedule thereafter, which the person does. A year later the person returns to the physician for a blood test. […] The person continues taking the atorvastatin for a week followed by a three month break and repeating this schedule for the rest of their life, with their LDL levels ranging from 115-120, HDL levels ranging from 45-51 and their cholesterol levels ranging from 151-162.

[2] = Example 2: blood test of LDL, HDL and cholesterol levels, periodic treatment with atorvastatin, person; type: in vivo, human; details: 40 mg orally, one week on / a month off, after six months
[3] = as above; type: in vivo, human; details: for HDL level / LDL level / cholesterol level: one week on / two months off
Description: A person visits their physician and during the visit undergoes a blood test. The person is found to have an LDL level of 92 mg/dl, HDL level of 41 mg/dl and a cholesterol level of 212 mg/dl. […] To remind the person to take atorvastatin after the monthly breaks, they download an application to their smart phone and inputs the first day they are to take atorvastatin and the application automatically determines the day a month after stopping taking atorvastatin that they are to start taking the atorvastatin again. A month after taking the first weeks dose of atorvastatin, the person receives a reminder from the application on their smart phone to take the second dose of atorvastatin. This repeats on a monthly basis. The person returns to the physician for a follow on blood test six months later and they are found to have LDL level of 120 mg/dl, HDL level of 45 mg/dl and a cholesterol level of 161 mg/dl. At this point the physician changes the frequency of the breaks between week of dosing to every two months, while maintaining the dose of 20 mg. The person inputs the new schedule into the application on their smart phone and they are reminded to take atorvastatin every two month by the application. Six months later, the person returns to the physician for a blood test. […] The physician recommends that the person continue to take atorvastatin for a week followed by a two month break, which the person does. A year later the person returns to the physician for a blood test. […] The person continues taking the atorvastatin for a week every two months for the rest of their life, with their LDL levels ranging from 115-120, HDL levels ranging from 45-51 and their cholesterol levels ranging from 151-162.

[4] = Example 4: blood test of LDL, HDL and cholesterol levels, periodic treatment with lovastatin, person; type: in vivo, human
Description: A person visits their physician and during the visit undergoes a blood test. The person is found to have an LDL level of 91 mg/dl, HDL level of 40 mg/dl and a cholesterol level of 222 mg/dl. […] To remind the person to take lovastatin after each four month break, the physician inputs the days that the person is to take lovastatin and arranges for the person to receive a letter by postal mail to remind them to take the lovastatin. Four months after taking the first weeks dose of lovastatin, the person receives a reminder by postal mail to take the second weeks dose. This repeats on an every four month basis. The person returns to the physician for a follow on blood test one year later and they are found to have LDL level of 109 mg/dl, HDL level of 45 mg/dl and a cholesterol level of 184 mg/dl. The person continues taking the atorvastatin for a week followed by a break of four months, which they repeat for the rest of their life, with their LDL levels ranging from 115-120, HDL levels ranging from 45-51 and their cholesterol levels ranging from 151-162.

[5] = Example 5: blood test of LDL, HDL and cholesterol levels, periodic treatment with gemfibrozil, person; type: in vivo, human
Description: A person visits their physician and during the visit undergoes a blood test. The person is found to have an LDL level of 74 mg/dl, HDL level of 32 mg/dl and a cholesterol level of 311 mg/dl. The physician prescribes gemfibrozil at an initial dose of 600 mg taken orally for one week followed by a one month break, followed by a week of taking gemfibrozil followed by a month break, which schedule is repeated thereafter. To remind the person to take gemfibrozil after the monthly break, the physician inputs the days that the person is to take gemfibrozil and arranges for the person to receive text messages through their cell phone and a telephone call to remind them to take gemfibrozil. One month after taking the first weeks dose of gemfibrozil, the person receives a reminder by text to take the second weeks dose of gemfibrozil. This repeats on a monthly basis. The person returns to the physician for a follow on blood test six months later and they are found to have LDL level of 101 mg/dl, HDL level of 41 mg/dl and a cholesterol level of 211 mg/dl. The physician recommends that the person continue to take gemfibrozil for a week followed by a month break, which the person does on a repeated basis. A year later the person returns to the physician for a blood test.

[6] = meta-analysis of clinical trials; cited from earlier work
[7] = once monthly administration (so in the source)
[8] = one week on / three month break, for the rest of their life, in mg/dL
[9] = a week every two months, for the rest of their life, in mg/dL
[10] = dose of 20 mg, after six months
[11] = one week on / four months off, for the rest of their life, in mg/dL
[12] = 600 mg orally, one week on / one month off, after six months
[13] = one week on / one month off, a year later
[14] = one week on / one month off, for the rest of their life, in mg/dL
[15] = 40 mg, one week on / four months off, one year later

For `CC(C)c1c(C(=O)Nc2ccccc2)c(-c2ccccc2)c(-c2ccc(F)cc2)n1CC[C@@H](O)C[C@@H](O)CC(=O)O` [atorvastatin], the “maintaining normal levels of LDL, HDL and cholesterol” value (shortened to “maintaining normal levels of LDL”) [1, 7] was “successful at maintaining normal levels of LDL, HDL and cholesterol”, the HDL levels ranging [1, 8] was 45-51 and the LDL levels ranging [1, 8] was 115-120. For the same compound, the cholesterol levels ranging [1, 8] was 151-162, the HDL level [2] was 45 mg/dL and the LDL level [2] was 120 mg/dL. For the same compound, the cholesterol level [2] was 161 mg/dL, the HDL levels ranging [3, 9] was 45-51 and the LDL levels ranging [3, 9] was 115-120. For the same compound, the cholesterol levels ranging [3, 9] was 151-162, the HDL level [3, 10] was 48 mg/dL and the LDL level [3, 10] was 120 mg/dL. For the same compound, the cholesterol level [3, 10] was 160 mg/dL, the “maintaining normal levels of LDL” value [3, 7] was “successful at maintaining normal levels of LDL, HDL and cholesterol” and the HDL level ([3]; a year later) was 48 mg/dL. The LDL level ([3]; a year later) was 118 mg/dL, the cholesterol level ([3]; a year later) was 161 mg/dL and the HDL levels ranging [4, 11] was 45-51. The LDL levels ranging [4, 11] was 115-120, the cholesterol levels ranging [4, 11] was 151-162 and the “maintaining normal levels of LDL” value ([5]; once monthly administration) was “successful at maintaining normal levels of LDL, HDL and cholesterol”.
In the case of `COCc1c(C(C)C)nc(C(C)C)c(/C=C/[C@@H](O)C[C@@H](O)CC(=O)O)c1-c1ccc(F)cc1` [cerivastatin], the rhabdomyolysis [6] is given as “rhabdomyolysis did not occur”.
Compound `Cc1ccc(C)c(OCCCC(C)(C)C(=O)O)c1` [gemfibrozil] has an HDL level [5, 12] of 41 mg/dL, an LDL level [5, 12] of 101 mg/dL and a cholesterol level [5, 12] of 211 mg/dL. For the same compound, the HDL level [5, 13] was 44 mg/dL, the LDL level [5, 13] was 106 mg/dL and the cholesterol level [5, 13] was 191 mg/dL. The HDL levels ranging [5, 14] was 45-51, the LDL levels ranging [5, 14] was 115-120 and the cholesterol levels ranging [5, 14] was 151-162.
In the case of `CC[C@H](C)C(=O)O[C@H]1C[C@@H](C)C=C2C=C[C@H](C)[C@H](CC[C@@H]3C[C@@H](O)CC(=O)O3)[C@H]21` [lovastatin], the HDL level [4, 15] is reported as 45 mg/dL, the LDL level [4, 15] is reported as 109 mg/dL and the cholesterol level [4, 15] is reported as 184 mg/dL. For the same compound, the “maintaining normal levels of LDL” value ([4]; once every four month administration) was “successful at maintaining normal levels of LDL, HDL and cholesterol”.

— patent publication US9849110B2, “Intermittent fibrate administration method” (Biocopea Limited, priority 2012, dated 2017)
